Patent US9457033B2, “Steroid alkaloids and uses thereof as antimicrobial agents against electron transport-deficient microbes and as potentiators for antimicrobial agents against pathogenic bacteria” (priority 2011, dated 2016)

How the values were obtained:
[1] = system: S. aureus SCV strain NewbouldΔhemB; assay: MIC of compounds against SCV; type: cell-based, Staphylococcus aureus; conditions: for MIC: Staphylococcus aureus, read-out: MIC of Cpd against SCV hemB; for MIC of Cpd against SCV hemB: provided in categories (strong ≦ 0.5; moderate 4-8; low > 8)
[2] = system: S. aureus ATCC 29213; assay: MIC, microdilution in CAMHB 24 h, with or without tomatidine/compound; type: cell-based, Staphylococcus aureus; conditions: for MIC: Staphylococcus aureus, ATCC29213, read-out: MIC of Cpd against ATCC29213; for MIC of Cpd against ATCC29213: compound alone
[3] = gentamicin with 8 μg/ml of Cpd, provided in categories of synergy (1-2 no or mild; 4-16 moderate or strong)

Structure (SMILES)	MIC [1]	MIC [2]	Fold (MIC of GEN alone/MIC of GEN with Cpd) [2, 3]	MIC of Cpd against SCV hemB [1]	MIC of Cpd against ATCC29213 [2]	Fold (MIC of GEN alone/MIC of GEN with Cpd) ([2]; gentamicin with Compound 56 used at 4 μg/ml, categories of synergy)
C[C@]12CC[C@H](O)C[C@@H]1CC[C@@H]1[C@@H]2CC[C@]2(C)[C@@H](C(=O)CN3CCCCC3)CC[C@@H]12 [Compound 48, 21-piperidinopregnanolone]	> 8 µg/mL	> 16 µg/mL	1-2 fold	–	–	–
CNCC(=O)[C@H]1CC[C@H]2[C@@H]3CCC4CC(O)CC[C@]4(C)[C@H]3CC[C@]12C.Cl (stereo partly drawn) [Compound 49, N-methyl-21-aminopregnanolone hydrochloride salt]	–	–	1-2 fold	>8 µg/mL	>16 µg/mL	–
C[C@]12CC[C@H]3[C@@H](CCC4CC(O)CC[C@@]43C)[C@@H]1CC[C@@H]2C(=O)CN1CCNCC1.Cl (stereo partly drawn) [Compound 50, 21-piperazinopregnanolone hydrochloride Salt]	–	–	1-2 fold	>8 µg/mL	>16 µg/mL	–
C=CCOC1CCC2(C)C(CCC3C2CCC2(C)C3CC3OC4(CCC(C)CN4)C(C)C32)C1.Cl (stereo not drawn) [Compound 56, O-allyltomatidine hydrochloride Salt]	–	–	–	≦0.5 μg/ml	8 to 16 µg/mL	4-16 fold
CS(=O)(=O)O.C[C@H]1CC[C@]2(NC1)O[C@H]1C[C@H]3[C@@H]4CC[C@H]5C[C@@H](O)CC[C@]5(C)[C@H]4CC[C@]3(C)[C@H]1[C@@H]2C [Compound 57, tomatidine methanesulfonate]	–	–	4-16 fold	≦0.5 μg/ml	>16 µg/mL	–
C[C@H]1CC[C@]2(NC1)O[C@@]1(C)C[C@@]3(C)[C@@H]4CC[C@@]5(C)C[C@@H](O)CC[C@]5(C)[C@@]4(C)CC[C@]3(C)[C@@]1(C)[C@@H]2C.O=C(O)CC(O)(CC(=O)O)C(=O)O [Compound 58, tomatidine citrate]	≤ 0.5 µg/mL	> 16 µg/mL	4-16 fold	–	–	–
